Test results reported in patent publication US5981544A, “Mono-- or diketone tetracyclic derivatives and therapeutical uses thereof” (Laboratoire Innothera, priority 1995, dated 1999).
“And” between values parts separate entries of the source, which are not always exact repeats. Identical values can stand only once.

Experiments:
[1] = tested on: saphenous vein of rabbits; assay: Contractile effect on rabbit saphenous vein rings precontracted by depolarizing physiological solution (40 mM potassium); parameters: species or system rabbit (New Zealand); conditions: Oryctolagus cuniculus, precontracted at 40 mM potassium; for Emax: % of maximum contraction induced by depolarizing hyperpotassic solution, read-out: Emax (% of maximum contr.); for EC50: read-out: ED50 (the source's name)
Procedure: For the in vitro studies, the compounds are made soluble in a pure aqueous solution or a solution containing DMSO (dimethyl sulfoxide).
Contractile effects are measured, in vitro and under static conditions, on capacitance or resistance vascular rings of the saphenous, femoral, jugular, mesenteric, and caval veins; and on the femoral, carotid, basilar, mesenteric, and thoracic or abdominal aortic arteries, in rats (Wistar, 200 to 250 g), rabbits (New Zealand, 2 to 2.5 kg), and guinea pigs (Dunkin Hartley, 250 to 300 g).
The rings are placed in an isolated organ chamber (25 mL for capacitance vessels and 2.5 mL for resistance vessels, as per Mulvany), kept in isometric conditions by two stiff cables inserted into the interior of the vessel, avoiding any damage to the endothelium. The vessels are washed in a modified Krebbs solution (in mM: NaCl=118; KCl=4.6; ClCl2 =2.5; MgSO4 =1.2; KH2 PO4 =1.17; NcHCO3 =25; glucose=11), permanently aerated by a gaseous mixture at 95% O2 and 5% CO2, at pH=7.4 and set thermostatically at 37° C. The rings are taken to their optimal point of the tension-length ratio.
The tensions developed generate an electrical signal through a strength sensor (Wheatstone bridge). […] The pharmacological studies are carried out after some preliminary contractile stimulations standardized by a depolarizing solution (hyperpotassic solution obtained by replacing NaCl by KCl in equimolar quantities), rinses, and balancing periods in pure physiological solution. Presence of the endothelium is verified by the relaxation induced by increasing concentrations of acetylcholine after stabilization of a vascular precontraction.
The contraction forces developed by the vascular rings in response to the different compounds are studied on quiescent or electrically stimulated (5-8 Hz) vessels, using a hyperpotassic depolarizing physiological solution (KCl: 20, 40 mM), using noradrenaline (increasing concentrations), or using serotonin (increasing concentrations).
The contractions are expressed in mg of force or as a percentage of maximum contraction at depolarization by a hyperpotassic physiological solution.
The compounds of the invention and their derived salts selectively increase, in the majority of cases, the contraction of animal veins produced by noradrenaline, by electrical stimulation, or by a depolarizing hyperpotassic solution. By way of example, there is the contractile effect of different compounds on the saphenous vein of rabbits, precontracted by a depolarizing physiological solution with a potassium concentration equal to 40 mM; the maximum effect produced by each compound is expressed as the percentage of maximum contraction induced by the depolarizing hyperpotassic solutions and in ED50 values: […]

mice = assay: Acute oral toxicity in mice; format: in vivo; conditions: single oral administration, 1 g/kg
Description: Furthermore, the compounds of the invention and their derived salts have a very low toxicity.

[2] = tested on: capillary resistance in rats; assay: Effects on capillary resistance (petechial index, negative pressure) after oral administration in rats; format: in vivo, rat (male Wistar); conditions: rat
Procedure: (§1) As for the in vivo studies, they are administered intravenously or intraperitoneally in the form of an aqueous solution with or without DMSO, or orally in a 1% carboxymethylcellulose suspension, administered with the use of a force-feed probe at a volume of 10 mL/kg.
Effects on capillary resistance:
The increase in capillary resistance is detected by the change in the petechial index (negative pressure inducing the extravasation of erythrocytes), measured by a method derived from Parrot's angiosterrometer.
The study is carried out on male Wistar rats weighing an average of 200 g (aged approximately 6 weeks). The lower back area is shaved, then depilated with the use of a paste based on a by-product of thioglycolic acid and calcium hydroxide. After approximately 30 min, the skin is rinsed abundantly and dried.
On the day of the study, the rats are kept nonconstrained. A low pressure of 80 mm of mercury is applied.
The minimum low pressure at which the petechiae appear expressed in mm of mercury, the value of the base capillary resistance (before any treatment). Two measurements are carried out for each trial on different places on the back. The rats are treated orally. After a predetermined amount of time (generally 2, 4, or 6 h) after the treatment, the test is renewed on different areas of skin, until petechiae appear, yielding a new low pressure index. All measurements are carried out in the blind mode.
The variation between the means of the base capillary resistance and post-treatment capillary resistance is calculated for the experimental animals, for each treatment time and compared to the control group (excipient only) or the reference group.
By way of example, the oral administration of certain compounds of the invention and their derived salts increases the capillary resistance in rats at doses generally between 0.01 and 5 mg/kg: […]

[3] = tested on: inflammatory hyperpermeability induced by zymosan in rats; assay: Effects on capillary hyperpermeability induced by zymosan in rats (Evans Blue albumin extravasation); format: in vivo, rat (Wistar); conditions: rat, oral
Procedure: as §1
Effects on induced capillary hyperpermeability
Vascular permeability is studied in vivo by measuring albumin extravasation, the quantity of which is determined by a coloring agent bonded to the albumin (Evans Blue). Hyperpermeability is induced by the intradermal injection of a histamine, bradykinin, or zymosan solution.
The technique is derived from that described by Beach and Steinetz, Journal of Pharmacology and Experimental Therapy, 131: 400-406, 1961.
The rats (Wistars, 200 to 230 g) are shaved on the abdominal wall 1 h before the start of the experiment. The product to be tested is injected i.p. or orally 1-4 h prior to sacrificing. The rats are anesthetized using a halothane mixture. They then receive an intradermal injection in the abdomen of 0.10 to 0.15 mL of an inflammatory agent (by histamine 6.7 or 10 μg) and an i.v. injection of 1 mL of Evans blue 0.5% solution in the vein of the penis. These injections are carried out 30 min prior to sacrificing.
30 min after these two injections, the rats are sacrificed by cervical dislocation.
At the locus of injection of the inflammatory agent, the skin is cut off and placed in ground-neck glass tubes containing 3 mL of fuming hydrochloric acid. Digestion of the skin is carried out by contact [with HCl] of at least 1 h in a double boiler at 37° C.; 3 mL of benzalkonium chloride at 12.8% are then added. After leaving undisturbed for 30 min, 7 mL of dichloromethane are added. The tubes are periodically agitated for 1 h. The aqueous phase is eliminated by aspiration and the organic dichloromethane phase is filtered. The optical densities are quantified by absorption spectrophotometry at a 620 nm wavelength, against a blank [control] containing only dichloromethane.
The averages for optical density of the different lots of experimental and control animals are calculated, then the variation between the data for the experimental animals and those for the control animals is calculated.
By way of illustration, the oral administration of certain compounds of the invention and their derived salts reduce inflammatory hyperpermeability induced by zymosan in rats in doses generally between 0.01 and 5 mg/kg: […]

Compound | Emax [1] [%] | EC50 [1] [nM] | mortality (mice) | toxic effect (mice) | Effect at 4 hours (capillary resistance) ([2]; 5 mg/kg) | Effect at 6 hours (capillary resistance) ([2]; 5 mg/kg) | Effect at 2 hours (hyperpermeability induced by zymosan) ([3]; 0.1 mg/kg) | Effect at 4 hours (hyperpermeability induced by zymosan) ([3]; 0.1 mg/kg) | Effect at 2 hours (hyperpermeability induced by zymosan) ([3]; 5 mg/kg) | Effect at 4 hours (hyperpermeability induced by zymosan) ([3]; 5 mg/kg) | Effect at 6 hours (capillary resistance) ([2]; 0.1 mg/kg) | Effect at 4 hours (capillary resistance) ([2]; 0.1 mg/kg)
Cc1ccc2nc3c(n2c1)C(=O)C(=O)c1ccccc1-3 [Example 1, 5,6-Dihydro-5,6-dioxo-9-methyl-naphtho[1',2':4,5]-imidazo[1,2-a]pyridine] | 20 ± 4 | 170 | – | – | – | – | – | – | – | – | – | –
Cc1ccn2c3c(nc2c1)-c1ccccc1C(=O)C3=O [Example 2, 5,6-Dihydro-5,6-dioxo-10-methyl-naphtho[1',2':4,5]-imidazo[1,2-a] pyridine] | 28 ± 4 | 271 | no mortality was observable | no toxic effect was observable | 11 % of control | 13 % of control | -10 % of control | -15 % of control | – | – | – | –
Cc1cccn2c3c(nc12)-c1ccccc1C(=O)C3=O [Example 3, 5,6-Dihydro-5,6-dioxo-11-methyl-naphtho[1',2':4,5]-imidazo[1,2-a] pyridine] | 18 ± 4 | 200 | – | – | – | – | – | – | -13 % of control | -12 % of control | – | –
O=C1C(=O)c2c(nc3cc(Cl)ccn23)-c2ccccc21 [Example 12, 10-Chloro-5,6-dihydro-5,6-dioxo-naphtho[1',2':4,5]-imidazo[1,2-a] pyridine] | 13 ± 3 | 58 | – | – | – | – | – | – | – | – | – | –
O=C1C(=O)c2c(nc3ccccn23)-c2ccccc21 [Example a, 5,6-Dihydro-5,6-dioxo-naphtho[1',2':4,5]imidazo[1,2-a] pyridine] | 32 ± 7 | 306 | no mortality was observable | no toxic effect was observable | – | – | – | – | -1 % of control | -28 % of control | – | –
O=C1C(=O)c2c(nc3ccc(Cl)cn23)-c2ccccc21 [Example c, 9-Chloro-5,6-dihydro-5,6-dioxo-naphtho[1',2':4,5]-imidazo[1,2-a]pyridine] | 27 ± 4 | 157 | no mortality was observable | no toxic effect was observable | 17 % of control | 10 % of control | -14 % of control | -11 % of control | – | – | 29 % of control and 17 % of control | –
O=C1C(=O)c2c(nc3ncccn23)-c2ccccc21 [Example f] | 56 ± 7 | 450 | – | – | – | – | – | – | – | – | – | –
O=C1c2ncccc2C(=O)c2c1nc1ccccn21 [Example h, 6,11-Dihydro-6,11-dioxo-pyrido[1',2':1,2]-imidazo[5,4-g]quinoline] | 18 ± 3 | 67 | – | – | – | – | -23 % of control | -5 % of control | – | – | 13 % of control | 19 % of control
